Measured values: patent publication US20060040870A1, “Enhancement of apoptosis by caspase-9 inhibitors” (priority 2004, published 2006)
The star is where a group is joined. Cbz = O=C(OCc1ccccc1)*; CH2F = FC*

Experiments:
[1] = test system: CD19+ B-cell precursors; assay: Annexin V staining of sorted cord blood-derived CD19+ B-cell precursors removed from MS-5 stroma; assay type: cell-based, human; conditions: cultured 18 hours, DMSO control 46.5 ± 1.4, Time 0 1.5
Experimental: Normal B-lineage cells. CD19+ B-lineage cells were derived from CD34+ human cord blood stem cells plated on the murine stromal cell line MS-5 (Itoh Exp Hematol. 1989;17:145-153). MS-5 stromal cells were kindly provided by Dr. Paul Kincade (University of Oklahoma Medical Research Foundation), following permission from Professor K. John Mori (Niigata University, Japan). FACS-purified CD34+/CD38+/lineage—cord blood hematopoietic stem cells were plated onto confluent, non-irradiated MS-5 stromal cells in 96-well flat-bottom plates (200 cells/well) containing Minimal Essential Medium supplemented with 10% FBS. Stem cell factor and G-CSF were added at 10 ng/ml (twice weekly) to enhance the emergence of CD19+ B-lineage cells (Nishihara Eur J Immunol. 1998;28:855-864; Ohkawara Leukemia. 1998;12:764-771). […] Wells were then pooled, stained with PE-conjugated anti-CD 19 + propidium iodide (PI), and sorted on a FACSVantage (BD Immunocytometry Systems, San Jose, Calif.). Cord blood CD34+/CD38+/lineage—cells were provided by Valerie McCullar and Dr. Jeff Miller of the University of Minnesota Cancer Center in accordance with the University of Minnesota Institutional Review Board on Human Subjects.
Flow cytometry. Quantitation of apoptotic events was conducted using a FACS Calibur (BD Immunocytometry Systems). […]

[2] = test system: leukemia/lymphoma cells; assay: Pro-apoptotic activity of caspase inhibitor sequences (Table 2); assay type: cell-based; design: key: “−” is no activity; ++++ is maximum activity
From the text: Caspases are constitutively express in cells, and are usually in their pro-form. In response to an incident, such as irradiation or chemotherapy, the pro-form of the caspase is converted into the activated state. Certain compounds are known that can inhibit caspases. For example, the pan-caspase (PCi) VAD can block all caspases. […] For example, C2i inhibits caspase-2. This particular inhibitor is very dose dependent.

[3] = test system: BLIN-1 cells; assay: Apoptosis by Annexin V staining and flow cytometry, BLIN-1; assay type: cell-based, human; conditions: BLIN-1, 50 μM, 18 hours
Experimental: (§1) Flow cytometry. Quantitation of apoptotic events was conducted using a FACS Calibur (BD Immunocytometry Systems). All analyses were conducted on cells with lymphoid light scatter characteristics (i.e., low to medium forward scatter and low 90° side scatter).
(§2) iii. Annexin V. FITC-labeled Annexin V (BD Pharmingen, San Diego, Calif.) was used to detect external phosphatidylserine residues appearing on the external surface of early apoptotic cells (Koopman Blood. 1994;84:1415-1420). Cells were stained according to the manufacturers recommendations.
(§3) General experimental strategy. BLIN cell lines were removed from fibroblast monolayers, washed once and resuspended to 7.5×10^5/ml in X-VIVO 10. Two hundred μL of resuspended cells were added to 96-well flat-bottom microtiter plates (ISC Bioexpress, Kaysville, Vt.), followed by 0.5-1.0 μL of caspase inhibitors in DMSO. An identical volume of DMSO alone was added to separate wells as a vehicle control. This final DMSO concentration of 0.25-0.5% vol/vol had no adverse affect on any of the BLIN cell lines. At the indicated times the entire content of individual wells was harvested and stained in the fluorescent protocols described above.
(§4) The inventors carried out experiments to test the influence of specific amino acid substitutions on the proapoptotic activity Z-LEHD-fmk. […]

[4] = test system: BLIN-2 cells; assay: Apoptosis by Annexin V staining and flow cytometry, BLIN-2; assay type: cell-based, human; conditions: BLIN-2, 50 μM, 18 hours
Experimental: as §1, §2, §3, §4

[5] = test system: BLIN-3 cells; assay: Apoptosis by Annexin V staining and flow cytometry, BLIN-3; assay type: cell-based, human
Experimental: as §1, §2, §3
The inventors carried out experiments to test the influence of specific amino acid substitutions on the proapoptotic activity Z-LEHD-fmk. Cells were cultured for 24 hours with various μM concentrations of Z-LEDH-fmk or single amino acid substitution of the parent peptide. All values in the following Table 3 represent the percentage of total Annexin V+ cells (PI+ and PI−) minus the percentage present in culture with DMSO alone (BLIN-2=3%; BLIN-3+7%; BLIN4L=5%).

[6] = test system: BLIN-4L cells; assay: Apoptosis by Annexin V staining and flow cytometry, BLIN-4L; assay type: cell-based, human; conditions: 50 μM
Experimental: as §1, §2, §3, §4

[7] = test system: BLIN-4E cells; assay: Apoptosis by Annexin V staining and flow cytometry, BLIN-4E; assay type: cell-based, human; conditions: 50 μM, 18 hours
Experimental: (§5) FIG. 4 is a pair of graphs showing the effect of […] on various cell lines, as determined by Annexin V staining and flow cytometry. The cells included the B-cell precursor ALL cell lines […], and NALM-6, the RAMOS, RAJI, and DAUDI Burkitt lymphoma cell lines, the CCRF-CEM, JURKAT, and H9 T lymphoma cell lines, the K-562 erythroleukemia cell line, and resting or activated (i.e., CD3/CD28 cross-linked) normal human T cells. […] Flow cytometry. Quantitation of apoptotic events was conducted using a FACS Calibur (BD Immunocytometry Systems). All analyses were conducted on cells with lymphoid light scatter characteristics (i.e., low to medium forward scatter and low 90° side scatter). iii. Annexin V. […] Cells were stained according to the manufacturers recommendations.

[8] = test system: CCRF-CEM T lymphoma cell line; assay: Apoptosis by Annexin V staining and flow cytometry, CCRF-CEM; assay type: cell-based; conditions: 50 μM, 18 hours
Experimental: as §5

[9] = test system: JURKAT T lymphoma cell line; assay: Apoptosis by Annexin V staining and flow cytometry, JURKAT; assay type: cell-based; conditions: 50 μM, 18 hours
Experimental: as §5

[10] = test system: leukemic cell lines; assay: Staurosporine response of panel of leukemic cell lines, Annexin V; assay type: cell-based; conditions: staurosporine plus 50 μM C9i; leukemic cells that responded to C9i alone
Experimental: as §5, with “recommendations. The inventors expanded their analysis of […] to other leukemic cell lines. […] The JURKAT T lymphoma cell line was also sensitive. In contrast, the RAJI and DAUDI Burkitt lymphoma cell lines, the H9 T lymphoma cell line, and the K-562 erythroleukemia cell line were insensitive to […]. […] The inventors also tested whether […] would potentiate the apoptotic effect of the widely used serine/threonine kinase inhibitor staurosporine. […] Thus, the leukemic cell lines were generally responsive to both […] and staurosporine, or responsive to neither.” for “recommendations.”

Substance: Z-LEHD-fmk (Cbz-LEHD-CH2F; SMILES CC(C)C[C@H](NC(=O)OCc1ccccc1)C(=O)N[C@@H](CCC(=O)O)C(=O)N[C@@H](Cc1c[nH]cn1)C(=O)N[C@@H](CC(=O)O)C(=O)CF) [C9i]
- percentage of total Annexin V+ cells (PI+ and PI−), mean ± SD [1]: 56.0 ± 3.2 %
- Pro-apoptotic Activity (after 24 hours) [2]: ++++
- sensitivity (fold-increase in Annexin V+ cells vs DMSO) [3]: sensitive
- sensitivity (fold-increase in Annexin V+ cells vs DMSO) [4]: less sensitive than the others
- sensitivity (fold-increase in Annexin V+ cells vs DMSO) ([5]; BLIN-3, 50 μM, 18 hours): sensitive
- apoptosis (Annexin V and TMRE staining) versus DMSO vehicle ([5]; BLIN-3 removed from adherent fibroblasts, 50 μM, 2-hour time points up to 8 hours): pronounced enhancement of apoptosis
- apoptosis (Annexin V and TMRE staining) versus DMSO vehicle ([6]; BLIN-4L removed from adherent fibroblasts, 2-hour time points up to 8 hours): promoted apoptosis in BLIN-4L, albeit not as pronounced as in BLIN-3
- sensitivity (fold-increase in Annexin V+ cells vs DMSO) ([6]; BLIN-4L, 18 hours): sensitive
- sensitivity (fold-increase in Annexin V+ cells vs DMSO) [7]: sensitive
- sensitivity (fold-increase in Annexin V+ cells vs DMSO) [8]: extremely sensitive
- sensitivity (fold-increase in Annexin V+ cells vs DMSO) [9]: sensitive
- potentiation of the apoptotic effect of staurosporine [10]: enhanced the staurosporine response
